Non-standard residues stand in square brackets, D forms with d. Residues, ends and D or L forms follow the SMILES beside them. Dip = N[C@H](C(=O)O)C(c1ccccc1)c1ccccc1
Tests used:
HeLa = test: Cytotoxicity against human HeLa cells assessed as inhibition of cell growth incubated for 1 hr by MTT assay; assay type: functional, cell-based
MCF7 = test: Cytotoxicity against human MCF7 cells assessed as inhibition of cell growth incubated for 1 hr by MTT assay; assay type: functional, cell-based; settings: MCF7, 1 h
[1] = Cytotoxicity against RG cells (unknown origin) assessed as inhibition of cell growth incubated for 1 hr by MTT assay; assay type: functional, cell-based
A549 = test: Cytotoxicity against human A549 cells assessed as inhibition of cell growth incubated for 1 hr by MTT assay; assay type: functional, cell-based; settings: A549, 1 h
[2] = Cytotoxicity against HK-2 cells assessed as inhibition of cell growth incubated for 1 hr by MTT assay; assay type: toxicity, cell-based; settings: human
[3] = Therapeutic index, ratio of HC10 for mouse RBC to IC50 for cytotoxicity against human HeLa cells; assay type: toxicity, cell-based; settings: mouse RBC and HeLa cells, read-out: TI
[4] = Therapeutic index, ratio of HC10 for mouse RBC to IC50 for cytotoxicity against human MCF7 cells; assay type: toxicity, cell-based; settings: mouse RBC and MCF7 cells, read-out: TI
[5] = Therapeutic index, ratio of HC10 for mouse RBC to IC50 for cytotoxicity against RG cells (unknown origin); assay type: toxicity, cell-based; settings: mouse RBC and RG cells, read-out: TI
[6] = Therapeutic index, ratio of HC10 for mouse RBC to IC50 for cytotoxicity against human A549 cells; assay type: toxicity, cell-based; settings: mouse RBC and A549 cells, read-out: TI

Structure (SMILES)	IC50 (HeLa) [µM]	IC50 (MCF7) [µM]	IC50 [1] [µM]	IC50 (A549) [µM]	IC50 at 1 h [2] [µM]	selectivity ratio [3]	selectivity ratio [4]	selectivity ratio [5]	selectivity ratio [6]
CC(C)C[C@H](NC(=O)[C@H](CCCCN)NC(=O)[C@H](CC(C)C)NC(=O)[C@H](CC(C)C)NC(=O)[C@H](CCCCN)NC(=O)[C@H](CCCCN)NC(=O)[C@H](CC(C)C)NC(=O)[C@H](CC(C)C)NC(=O)[C@H](CCCCN)NC(=O)[C@H](CCCCN)NC(=O)[C@H](CC(C)C)NC(=O)[C@H](CC(C)C)NC(=O)[C@H](CCCCN)NC(=O)[C@H](CCCCN)NC(=O)[C@H](CC(C)C)NC(=O)[C@H](CC(C)C)NC(=O)[C@@H](N)CCCCN)C(N)=O (H-KLLKKLLKKLLKKLLKL-NH2)	2.68	6.19	7.88	4.06	5.35	1.2	0.517	0.406	0.787
CC(C)C[C@H](NC(=O)[C@H](CC(C)C)NC(=O)[C@H](CCCCN)NC(=O)[C@H](CCCCN)NC(=O)[C@H](CC(C)C)NC(=O)[C@H](CC(C)C)NC(=O)[C@H](CCCCN)NC(=O)[C@H](CCCCN)NC(=O)[C@H](CC(C)C)NC(=O)[C@H](CC(C)C)NC(=O)[C@@H](N)CCCCN)C(=O)N[C@@H](CCCCN)C(N)=O (H-KLLKKLLKKLLK-NH2)	22.2	89.7	47.2	131	82.6	18.9	4.66	8.86	3.19
CC(C)C[C@H](NC(=O)[C@H](CC(C)C)NC(=O)[C@H](CCCCN)NC(=O)[C@H](CCCCN)NC(=O)[C@H](CC(C)C)NC(=O)[C@H](CC(C)C)NC(=O)[C@H](CCCCN)NC(=O)[C@H](CCCCN)NC(=O)[C@H](CCC(=O)O)NC(=O)[C@H](CC(C)C)NC(=O)[C@H](CCCCN)NC(=O)[C@H](CCCCN)NC(=O)[C@H](CC(C)C)NC(=O)[C@@H](N)CC(C)C)C(N)=O (H-LLKKLEKKLLKKLL-NH2)	104	202	418	530	264	4.8	2.47	1.2	0.943
NCCCC[C@H](NC(=O)[C@@H](NC(=O)[C@H](Cc1c[nH]c2ccccc12)NC(=O)[C@H](CCCCN)NC(=O)[C@H](CCCCN)NC(=O)[C@H](Cc1c[nH]c2ccccc12)NC(=O)[C@H](Cc1c[nH]c2ccccc12)NC(=O)[C@H](CCCCN)NC(=O)[C@@H](N)CCCCN)C(c1ccccc1)c1ccccc1)C(N)=O [RUXOTEMITIDE] (H-KKWWKKW[Dip]K-NH2)	14.7	63.5	43.2	64.1	78.4	10.6	2.45	3.6	2.43
CC(C)C[C@H](NC(=O)[C@H](CCCCN)NC(=O)[C@H](CC(C)C)NC(=O)[C@H](CC(C)C)NC(=O)[C@H](CCCCN)NC(=O)[C@H](CCCCN)NC(=O)[C@H](CC(C)C)NC(=O)[C@H](CC(C)C)NC(=O)[C@H](CCCCN)NC(=O)[C@H](CCCCN)NC(=O)[C@H](CC(C)C)NC(=O)[C@H](CC(C)C)NC(=O)[C@@H](N)CCCCN)C(N)=O (H-KLLKKLLKKLLKL-NH2)	8.14	10.5	11.1	9.08	9.65	6.79	5.27	4.98	6.09
CC(C)C[C@H](NC(=O)[C@H](CC(C)C)NC(=O)[C@H](CCC(=O)O)NC(=O)[C@H](CCCCN)NC(=O)[C@H](CC(C)C)NC(=O)[C@H](CC(C)C)NC(=O)[C@H](CCCCN)NC(=O)[C@H](CCCCN)NC(=O)[C@H](CC(C)C)NC(=O)[C@H](CC(C)C)NC(=O)[C@H](CCCCN)NC(=O)[C@H](CCCCN)NC(=O)[C@H](CC(C)C)NC(=O)[C@@H](N)CC(C)C)C(N)=O (H-LLKKLLKKLLKELL-NH2)	14.7	11.8	6.16	10.9	10.8	0.352	0.438	0.838	0.474
CC(C)C[C@H](NC(=O)[C@H](CCCCN)NC(=O)[C@H](CCCCN)NC(=O)[C@H](CC(C)C)NC(=O)[C@H](CC(C)C)NC(=O)[C@H](CCCCN)NC(=O)[C@H](CCCCN)NC(=O)[C@H](CC(C)C)NC(=O)[C@H](CC(C)C)NC(=O)[C@H](CCCCN)NC(=O)[C@H](CCCCN)NC(=O)[C@H](CC(C)C)NC(=O)[C@@H](N)CC(C)C)C(=O)N[C@@H](CC(=O)O)C(N)=O (H-LLKKLLKKLLKKLD-NH2)	12.1	30.7	32.8	18.8	50.3	31.1	12.2	11.4	20
CC(C)C[C@H](NC(=O)[C@H](CC(C)C)NC(=O)[C@H](CCCCN)NC(=O)[C@H](CCCCN)NC(=O)[C@H](CC(C)C)NC(=O)[C@H](CC(C)C)NC(=O)[C@H](CCCCN)NC(=O)[C@H](CCCCN)NC(=O)[C@H](CC(C)C)NC(=O)[C@H](CC(C)C)NC(=O)[C@H](CCCCN)NC(=O)[C@H](CCCCN)NC(=O)[C@H](CC(C)C)NC(=O)[C@H](CC(C)C)NC(=O)[C@H](CCCCN)NC(=O)[C@@H](N)CCCCN)C(=O)N[C@@H](CCCCN)C(N)=O (H-KKLLKKLLKKLLKKLLK-NH2)	4.63	9.06	10.9	7.23	8.47	2.62	1.34	1.11	1.67
CC(C)C[C@H](NC(=O)[C@H](CC(C)C)NC(=O)[C@H](CCCCN)NC(=O)[C@H](CCCCN)NC(=O)[C@H](CC(C)C)NC(=O)[C@H](CCC(=O)O)NC(=O)[C@H](CCCCN)NC(=O)[C@H](CCCCN)NC(=O)[C@H](CC(C)C)NC(=O)[C@H](CC(C)C)NC(=O)[C@H](CCCCN)NC(=O)[C@H](CCCCN)NC(=O)[C@H](CC(C)C)NC(=O)[C@@H](N)CC(C)C)C(N)=O (H-LLKKLLKKELKKLL-NH2)	120	181	217	482	146	4.18	2.76	2.3	1.04
CC(C)C[C@H](NC(=O)[C@H](CC(C)C)NC(=O)[C@H](CCCCN)NC(=O)[C@H](CCCCN)NC(=O)[C@H](CC(C)C)NC(=O)[C@H](CC(C)C)NC(=O)[C@H](CCC(=O)O)NC(=O)[C@H](CCCCN)NC(=O)[C@H](CC(C)C)NC(=O)[C@H](CC(C)C)NC(=O)[C@H](CCCCN)NC(=O)[C@H](CCCCN)NC(=O)[C@H](CC(C)C)NC(=O)[C@@H](N)CC(C)C)C(N)=O (H-LLKKLLKELLKKLL-NH2)	4.54	3.95	4.74	3.75	3.8	1.15	1.32	1.1	1.39
CC(C)C[C@H](NC(=O)[C@H](CC(C)C)NC(=O)[C@H](CCCCN)NC(=O)[C@H](CCCCN)NC(=O)[C@H](CCC(=O)O)NC(=O)[C@H](CC(C)C)NC(=O)[C@H](CCCCN)NC(=O)[C@H](CCCCN)NC(=O)[C@H](CC(C)C)NC(=O)[C@H](CC(C)C)NC(=O)[C@H](CCCCN)NC(=O)[C@H](CCCCN)NC(=O)[C@H](CC(C)C)NC(=O)[C@@H](N)CC(C)C)C(N)=O (H-LLKKLLKKLEKKLL-NH2)	43.7	97.1	78.9	87.1	92.5	11.4	5.15	6.34	5.74
CC(C)C[C@H](NC(=O)[C@H](CC(C)C)NC(=O)[C@H](CCCCN)NC(=O)[C@H](CCC(=O)O)NC(=O)[C@H](CC(C)C)NC(=O)[C@H](CC(C)C)NC(=O)[C@H](CCCCN)NC(=O)[C@H](CCCCN)NC(=O)[C@H](CC(C)C)NC(=O)[C@H](CC(C)C)NC(=O)[C@H](CCCCN)NC(=O)[C@H](CCCCN)NC(=O)[C@H](CC(C)C)NC(=O)[C@@H](N)CC(C)C)C(N)=O (H-LLKKLLKKLLEKLL-NH2)	5.53	7.66	5.73	5.01	4.49	3.15	2.28	3.04	3.48
CC(C)C[C@H](NC(=O)[C@H](CC(C)C)NC(=O)[C@H](CCCCN)NC(=O)[C@H](CCCCN)NC(=O)[C@H](CC(C)C)NC(=O)[C@H](CC(C)C)NC(=O)[C@H](CCCCN)NC(=O)[C@H](CCCCN)NC(=O)[C@H](CC(C)C)NC(=O)[C@H](CC(C)C)NC(=O)[C@H](CCCCN)NC(=O)[C@H](CCCCN)NC(=O)[C@H](CCC(=O)O)NC(=O)[C@@H](N)CC(C)C)C(N)=O (H-LEKKLLKKLLKKLL-NH2)	25.8	51.2	46.4	49.4	59.2	4.62	2.33	2.58	2.42
CC(C)C[C@H](NC(=O)[C@H](CCCCN)NC(=O)[C@H](CC(C)C)NC(=O)[C@H](CC(C)C)NC(=O)[C@H](CCCCN)NC(=O)[C@H](CCCCN)NC(=O)[C@H](CC(C)C)NC(=O)[C@H](CC(C)C)NC(=O)[C@H](CCCCN)NC(=O)[C@H](CCCCN)NC(=O)[C@H](CC(C)C)NC(=O)[C@H](CC(C)C)NC(=O)[C@H](CCCCN)NC(=O)[C@@H](N)CCCCN)C(N)=O (H-KKLLKKLLKKLLKL-NH2)	7.85	12.5	12.1	8.71	8.91	10.3	6.5	6.72	9.31
